Results on 33 compounds are retold here after patent publication US20230348426A1, “OXOPYRROLIDINE FPR2 AGONISTS” (Bristol-Myers Squibb Company, priority 2020, published 2023).

The target of experiment [1] is human FPR1 (Homo sapiens (Human), UniProt P21462). Put plainly: FPR1 cyclic adenosine monophosphate (cAMP) assay. The format is cell-based. The conditions noted are these: CHO cells overexpressing human FPR1; forskolin 10 µM; inhibition of cAMP production; read-out: hFPR1 cAMP EC50. From the text:
(§1) N-formyl peptide receptors (FPRs) are a family of chemo attractant receptors that facilitate leukocyte response during inflammation. FPRs belong to the seven-transmembrane G protein-coupled receptor superfamily and are linked to inhibitory G-proteins (Gi). Three family members (FPR1, FPR2 and FPR3) have been identified in humans and are predominantly found in myeloid cells with varied distribution and have also been reported in multiple organs and tissues. After agonist binding, the FPRs activate a multitude of physiological pathways, such as intra cellular signaling transduction, Ca^2+ mobilization and transcription. The family interacts with a diverse set of ligands that includes proteins, polypeptides and fatty acid metabolites which activate both pro-inflammatory and pro-resolution downstream responses. FPR2 and FPR1 Cyclic Adenosine Monophosphate (cAMP) Assays were used to measure the activity of the compounds in this patent.
FPR2 and FPR1 Cyclic Adenosine Monophosphate (cAMP) Assays. A mixture of forskolin (5 µM final for FPR2 or 10 µM final for FPR1) and IBMX (200 µM final) were added to 384-well Proxiplates (Perkin-Elmer) pre-dotted with test compounds in DMSO (1% final) at final concentrations in the range of 0.020 nM to 100 µM. Chinese Hamster Ovary cells (CHO) overexpressing human FPR1 or human FPR2 receptors were cultured in F-12 (Ham’s) medium supplemented with 10% qualified FBS, 250 µg/ml zeocin and 300 µg/ml hygromycin (Life Technologies). Reactions were initiated by adding 2,000 human FPR2 cells per well or 4,000 human FPR1 cells per well in Dulbecco’s PBS (with calcium and magnesium) (Life Technologies) supplemented with 0.1% BSA (Perkin-Elmer). The reaction mixtures were incubated for 30 min at room temperature. The level of intracellular cAMP was determined using the HTRF HiRange cAMP assay reagent kit (Cisbio) according to manufacturer’s instruction. Solutions of cryptate conjugated anti-cAMP and d2 flurorophore-labelled cAMP were made in a supplied lysis buffer separately. Upon completion of the reaction, the cells were lysed with equal volume of the d2-cAMP solution and anti-cAMP solution. […] The potency and activity of a compound to inhibit cAMP production was then determined by fitting to a 4-parametric logistic equation from a plot of cAMP level versus compound concentrations.
(Cyclic AMP is a second messenger, typically raised through Gs and lowered through Gi signalling.)

Experiment [2] concerns the target human FPR2 (Homo sapiens (Human), UniProt P25090). Put plainly: FPR2 cyclic adenosine monophosphate (cAMP) assay. In kind it is cell-based. The conditions noted are these: CHO cells overexpressing human FPR2; forskolin 5 µM; inhibition of cAMP production; read-out: hFPR2 cAMP2 EC50.
Excerpt: as §1
FPR2 and FPR1 Cyclic Adenosine Monophosphate (cAMP) Assays. A mixture of forskolin (5 µM final for FPR2 or 10 µM final for FPR1) and IBMX (200 µM final) were added to 384-well Proxiplates (Perkin-Elmer) pre-dotted with test compounds in DMSO (1% final) at final concentrations in the range of 0.020 nM to 100 µM. Chinese Hamster Ovary cells (CHO) overexpressing human FPR1 or human FPR2 receptors were cultured in F-12 (Ham’s) medium supplemented with 10% qualified FBS, 250 µg/ml zeocin and 300 µg/ml hygromycin (Life Technologies). Reactions were initiated by adding 2,000 human FPR2 cells per well or 4,000 human FPR1 cells per well in Dulbecco’s PBS (with calcium and magnesium) (Life Technologies) supplemented with 0.1% BSA (Perkin-Elmer). The reaction mixtures were incubated for 30 min at room temperature. The level of intracellular cAMP was determined using the HTRF HiRange cAMP assay reagent kit (Cisbio) according to manufacturer’s instruction. Solutions of cryptate conjugated anti-cAMP and d2 flurorophore-labelled cAMP were made in a supplied lysis buffer separately. Upon completion of the reaction, the cells were lysed with equal volume of the d2-cAMP solution and anti-cAMP solution. After a 1-h room temperature incubation, time-resolved fluorescence intensity was measured using the Envision (Perkin-Elmer) at 400 nm excitation and dual emission at 590 nm and 665 nm. A calibration curve was constructed with an external cAMP standard at concentrations ranging from 1 µM to 0.1 pM by plotting the fluorescent intensity ratio from 665 nm emission to the intensity from the 590 nm emission against cAMP concentrations. The potency and activity of a compound to inhibit cAMP production was then determined by fitting to a 4-parametric logistic equation from a plot of cAMP level versus compound concentrations.

Each structure is given as a SMILES string.

Sequence of human FPR1 (P21462 whole entry): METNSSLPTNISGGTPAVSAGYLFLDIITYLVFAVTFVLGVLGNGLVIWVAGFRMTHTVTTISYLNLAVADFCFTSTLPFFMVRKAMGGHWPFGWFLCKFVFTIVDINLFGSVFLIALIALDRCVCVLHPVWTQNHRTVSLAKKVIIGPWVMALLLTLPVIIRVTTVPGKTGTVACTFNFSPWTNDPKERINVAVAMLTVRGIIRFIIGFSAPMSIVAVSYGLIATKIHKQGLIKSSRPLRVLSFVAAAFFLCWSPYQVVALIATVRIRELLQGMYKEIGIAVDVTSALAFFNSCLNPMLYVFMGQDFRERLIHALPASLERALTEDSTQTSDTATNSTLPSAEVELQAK
Sequence of human FPR2 (P25090 whole entry): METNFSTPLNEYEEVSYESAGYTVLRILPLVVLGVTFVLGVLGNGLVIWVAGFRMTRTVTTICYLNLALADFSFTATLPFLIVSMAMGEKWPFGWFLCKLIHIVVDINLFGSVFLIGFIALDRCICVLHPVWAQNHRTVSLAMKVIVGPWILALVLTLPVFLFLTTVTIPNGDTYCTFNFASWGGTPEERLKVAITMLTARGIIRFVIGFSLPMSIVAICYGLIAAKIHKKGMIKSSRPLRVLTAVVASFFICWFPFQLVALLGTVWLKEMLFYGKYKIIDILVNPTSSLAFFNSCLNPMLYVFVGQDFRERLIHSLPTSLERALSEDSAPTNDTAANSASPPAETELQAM

For `COc1cc(N2C[C@@H]3C[C@H]2CN3C)nc(N2C(=O)[C@@H](NC(=O)c3ccc(OC(F)F)cc3)[C@H](c3c(F)cc(OC)cc3F)[C@@H]2C)c1` [Example 51], the EC50 amounted to 5500 nM in experiment [1] and 1.2 nM in experiment [2].
For `COc1cc(F)c([C@@H]2CN(c3cccn(C(F)F)c3=O)C(=O)[C@H]2NC(=O)c2ccc(OC(F)F)cc2)c(F)c1` [Example 52], the EC50 in experiment [1] was 27 nM; in experiment [2], 1.3 nM.
Regarding `COCCn1cccc(N2C[C@@H](c3ccc(OC)cc3F)[C@H](NC(=O)c3ccc(OC(F)(F)F)cc3)C2=O)c1=O` [Example 53], the EC50 is 2.3 nM in experiment [1] and 1.4 nM in experiment [2].
Consider `COc1cc(F)c([C@@H]2CN(c3nc(N4CCN(C)CC4)ccc3F)C(=O)[C@H]2NC(=O)c2ccc(OC(F)F)cc2)c(F)c1` [Example 54], for which the results for the EC50 in experiment [1] and in experiment [2] were 820 nM and 1.4 nM, respectively.
Turning to `COc1ccc([C@@H]2CN(c3cccn(CCC(F)(F)F)c3=O)C(=O)[C@H]2NC(=O)c2ccc(OC(F)F)cc2)c(F)c1` [Example 55], the EC50 in experiment [1] stood at 8.6 nM; in experiment [2], 1.4 nM.
Take `COCCn1cccc(N2C[C@@H](c3ccc(OC)cc3F)[C@H](NC(=O)c3ccc(OC(F)(F)F)cc3)C2=O)c1=O` [Example 56]: the EC50 in experiment [1] came to 4 nM; in experiment [2], 1.4 nM.
`COc1ccc([C@@H]2CN(c3c(C)ccn(CC4CC4)c3=O)C(=O)[C@H]2NC(=O)c2ccc(OC(F)(F)F)cc2)cc1` [Example 57]: the EC50 in experiment [1] was determined as 0.066 nM; in experiment [2] it was 1.4 nM.
Turning to `COc1cc(F)c([C@@H]2CN(c3nc(N4CCOCC4=O)ccc3F)C(=O)[C@H]2NC(=O)c2ccc(OC(F)(F)F)cc2)c(F)c1` [Example 58], the EC50 in experiment [1] is 3.5 nM; in experiment [2] it was 1.5 nM.
As for `COc1ccc([C@@H]2CN(c3cccn(CC(F)F)c3=O)C(=O)[C@H]2NC(=O)c2ccc(OC(F)F)cc2)c(F)c1` [Example 59], the EC50 in experiment [1] is 6.6 nM; in experiment [2] it was 1.5 nM.
For `COCCn1cccc(N2C[C@@H](c3ccc(OC)cc3)[C@H](NC(=O)c3ccc(OC(F)(F)F)cc3)C2=O)c1=O` [Example 60], in that order: 2.6 nM and 1.6 nM.
For the compound `COc1cc(F)c([C@@H]2CN(c3nc(NC4CCOC4)ccc3F)C(=O)[C@H]2NC(=O)c2ccc(OC(F)(F)F)cc2)c(F)c1` (stereo partly drawn) [Example 62], the results for the EC50 in experiment [1] and in experiment [2] were 110 nM and 1.6 nM, respectively.
As for `COc1ccc([C@@H]2CN(c3cccn(CCO)c3=O)C(=O)[C@H]2NC(=O)c2ccc(OC(F)(F)F)cc2)c(F)c1` [Example 63], the EC50 is 16 nM in experiment [1] and 1.7 nM in experiment [2].
In the case of `COc1ccc([C@@H]2CN(c3cccn(CCO)c3=O)C(=O)[C@H]2NC(=O)c2ccc(OC(F)(F)F)cc2)cc1` [Example 64], the figures for the concentration for a half-maximal effect (EC50) in experiment [1] and in experiment [2] were 7.2 nM and 1.7 nM, respectively.
For the compound `COc1cc(F)c([C@@H]2CN(c3ccnc(N4C[C@@H]5C[C@H]4CN5C)c3C(F)(F)F)C(=O)[C@H]2NC(=O)c2ccc(OC(F)F)cc2)c(F)c1` [Example 65], the results for the EC50 in experiment [1] and in experiment [2] were 180 nM and 1.7 nM, respectively.
For the compound `COc1cc(F)c([C@@H]2CN(c3nc(N4C(=O)C5CCCC54)ccc3F)C(=O)[C@H]2NC(=O)c2ccc(OC(F)F)cc2)c(F)c1` (stereo partly drawn) [Example 66], the EC50 in experiment [1] was found to be 49 nM; in experiment [2], 1.8 nM.
For `CCn1cccc(N2C[C@@H](c3ccc(Cl)cc3)[C@H](NC(=O)c3ccc(OC(F)(F)F)cc3)C2=O)c1=O` [Example 67], the figures for the EC50 in experiment [1] and in experiment [2] were 4.4 nM and 1.8 nM, respectively.
For `O=C(N[C@@H]1C(=O)N(c2cccn(CC(F)F)c2=O)C[C@H]1c1ccc(Cl)cc1)c1ccc(OC(F)(F)F)cc1` [Example 69], the EC50 in experiment [1] was found to be 4.2 nM; in experiment [2], 1.9 nM.
In the same order, the values of `COc1cc(N2C[C@@H]3C[C@H]2CN3C)nc(N2C(=O)[C@@H](NC(=O)c3ccc(Cl)cc3)[C@H](c3c(F)cc(OC)cc3F)[C@@H]2C)c1` [Example 70] are > 10000 nM and 1.9 nM.
Take `COc1cc(N2C[C@@H]3C[C@H]2CN3C)nc(N2C(=O)[C@@H](NC(=O)c3ccc(OC(F)F)cc3)[C@H](c3c(F)cc(OC)cc3F)[C@H]2C)c1` [Example 71]: the EC50 in experiment [1] amounted to 290 nM; in experiment [2], 1.9 nM.
On to `O=C(N[C@@H]1C(=O)N(c2cccn(CCC(F)(F)F)c2=O)C[C@H]1c1ccc(Cl)cc1)c1ccc(OC(F)F)cc1` [Example 72], for which the EC50 came to 5.7 nM in experiment [1] and 1.9 nM in experiment [2].
Turning to `O=C(N[C@@H]1C(=O)N(c2cccn(CCC(F)(F)F)c2=O)C[C@H]1c1ccc(Cl)cc1)c1ccc(OC(F)(F)F)cc1` [Example 73], the concentration for a half-maximal effect (EC50) amounted to 3.2 nM in experiment [1] and 1.9 nM in experiment [2].
For the compound `COCCn1cccc(N2C(=O)[C@@H](NC(=O)c3ccc(Cl)cc3)[C@H](c3c(F)cc(OC)cc3F)[C@@H]2C)c1=O` [Example 74], the 50% effective concentration (EC50) in experiment [1] was determined as 94 nM; in experiment [2], 1.9 nM.
For the compound `COc1ccc([C@@H]2CN(c3cccn(CCC(F)(F)F)c3=O)C(=O)[C@H]2NC(=O)c2ccc(OC(F)(F)F)cc2)c(F)c1` [Example 75], the EC50 in experiment [1] is 2.8 nM; in experiment [2], 2 nM.
On to `COc1cc(F)c([C@H]2[C@H](NC(=O)c3ccc(OC(F)F)cc3)C(=O)N(c3ncccc3OC)[C@H]2C)c(F)c1` [Example 77], for which the EC50 was determined as 170 nM in experiment [1] and 2 nM in experiment [2].
In the same order, the values of `COCC(CN)n1cccc(N2C[C@@H](c3c(F)cc(OC)cc3F)[C@H](NC(=O)c3ccc(OC(F)(F)F)cc3)C2=O)c1=O` (stereo partly drawn) [Example 78] are 5.2 nM and 2 nM.
Take `CCn1cccc(N2C(=O)[C@@H](NC(=O)c3ccc(OC(F)F)cc3)[C@H](c3c(F)cc(OC)cc3F)[C@@H]2C)c1=O` [Example 80]: the values for the EC50 in experiment [1] and in experiment [2] were 130 nM and 2.1 nM, respectively.
In the case of `COCCn1cccc(N2C[C@@H](c3ccc(OC)cc3F)[C@H](NC(=O)c3ccc(OC(F)F)cc3)C2=O)c1=O` [Example 81], the EC50 in experiment [1] came to 2.7 nM; in experiment [2], 2.2 nM.
Take `CCn1cccc(N2C[C@@H](c3ccc(OC)cc3F)[C@H](NC(=O)c3ccc(OC(F)(F)F)cc3)C2=O)c1=O` [Example 82]: the 50% effective concentration (EC50) in experiment [1] came to 5.3 nM; in experiment [2] it was 2.2 nM.
For `CCn1cccc(N2C[C@@H](c3ccc(OC)cc3F)[C@H](NC(=O)c3ccc(OC(F)F)cc3)C2=O)c1=O` [Example 83], the figures for the EC50 in experiment [1] and in experiment [2] were 7.6 nM and 2.2 nM, respectively.
In the same order, the values of `COc1cc(F)c([C@@H]2CN(c3nc(NC4CCOC4)ccc3F)C(=O)[C@H]2NC(=O)c2ccc(OC(F)(F)F)cc2)c(F)c1` (stereo partly drawn) [Example 84] are 120 nM and 2.3 nM.
With `COc1cc(F)c([C@@H]2CN(c3cccn(CCN(C)C)c3=O)C(=O)[C@H]2NC(=O)c2ccc(OC(F)(F)F)cc2)c(F)c1` [Example 85], the EC50 in experiment [1] is 160 nM; in experiment [2], 2.3 nM.
`COc1cc(F)c([C@@H]2CN(c3c(C)ccn(CC(F)F)c3=O)C(=O)[C@H]2NC(=O)c2ccc(OC(F)(F)F)cc2)c(F)c1` [Example 86]: the EC50 in experiment [1] was found to be 4.1 nM; in experiment [2], 2.3 nM.
In the same order, the values of `COc1cc(F)c([C@@H]2CN(c3ccc[nH]c3=O)C(=O)[C@H]2NC(=O)c2ccc(Cl)cc2)c(F)c1` [Example 87] are 750 nM and 2.3 nM.

A word on the EC50: it is the concentration giving half of the maximal effect.
